pIC50: −log10 of the molar value.
Assays:
[1] = molecular target: Focal adhesion kinase 1 (Homo sapiens, UniProt Q05397); assay: Inhibition of pre-activated recombinant full length FAK (unknown origin) using ULight labeled poly(Glu/Tyr) as substrate after 1.6 hrs by TR-FRET assay
[2] = tested on: HUVEC; assay: Antiangiogenic activity in HUVEC assessed as inhibition of VEGF-stimulated proliferation after 72 hrs by WST-1 assay; assay type: functional, cell-based; conditions: Homo sapiens

Focal adhesion kinase 1, sequence (Q05397 whole entry): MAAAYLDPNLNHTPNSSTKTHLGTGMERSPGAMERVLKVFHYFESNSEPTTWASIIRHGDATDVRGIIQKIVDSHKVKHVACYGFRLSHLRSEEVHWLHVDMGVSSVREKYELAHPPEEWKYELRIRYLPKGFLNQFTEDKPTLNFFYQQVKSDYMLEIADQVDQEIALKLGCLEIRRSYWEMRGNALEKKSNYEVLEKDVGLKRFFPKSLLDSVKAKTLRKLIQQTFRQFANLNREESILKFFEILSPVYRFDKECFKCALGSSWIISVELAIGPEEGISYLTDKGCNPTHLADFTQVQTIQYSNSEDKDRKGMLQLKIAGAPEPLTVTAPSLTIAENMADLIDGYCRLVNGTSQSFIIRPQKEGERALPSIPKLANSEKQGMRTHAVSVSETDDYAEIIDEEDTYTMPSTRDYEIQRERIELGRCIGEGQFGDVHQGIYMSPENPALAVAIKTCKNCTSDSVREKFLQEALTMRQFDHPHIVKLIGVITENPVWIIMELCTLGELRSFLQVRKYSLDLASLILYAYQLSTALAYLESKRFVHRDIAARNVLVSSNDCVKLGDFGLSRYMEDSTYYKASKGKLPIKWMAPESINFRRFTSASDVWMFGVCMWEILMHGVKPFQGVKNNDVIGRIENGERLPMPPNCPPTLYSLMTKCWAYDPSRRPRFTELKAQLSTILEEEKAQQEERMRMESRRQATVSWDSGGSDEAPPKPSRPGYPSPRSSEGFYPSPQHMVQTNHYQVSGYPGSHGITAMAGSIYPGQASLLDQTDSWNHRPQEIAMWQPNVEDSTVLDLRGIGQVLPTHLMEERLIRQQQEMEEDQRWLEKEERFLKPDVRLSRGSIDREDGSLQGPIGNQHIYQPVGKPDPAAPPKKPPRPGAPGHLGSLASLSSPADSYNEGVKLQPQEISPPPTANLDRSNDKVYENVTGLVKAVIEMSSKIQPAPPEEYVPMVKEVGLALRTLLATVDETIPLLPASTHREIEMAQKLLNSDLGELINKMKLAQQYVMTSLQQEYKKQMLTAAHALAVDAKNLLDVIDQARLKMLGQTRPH

COc1cc(Nc2ncnc(Nc3ccccc3C(=O)NCCN(C)C)n2)cc(OC)c1OC showed a pIC50 [1] of 4.99 and a pIC50 [2] of 5.03.
For CNC(=O)c1ccccc1Nc1ncnc(Nc2cc(CCC(N)=O)c(OC)c(OC)c2)n1, the pIC50 [1] was 6.52 and the pIC50 [2] was 5.89.
CNc1nc(Nc2cc(OC)c(OC)c(OC)c2)nc(Nc2ccccc2NS(C)(=O)=O)n1 showed a pIC50 [1] of 4.18 and a pIC50 [2] of 4.47.
Compound CNC(=O)c1ccccc1Nc1nc(Nc2ccc(N3CCOCC3)cc2OC)ncc1Cl has a pIC50 [2] of 6.00.
With COc1cc(Nc2ncnc(Nc3cccc(NS(C)(=O)=O)c3)n2)cc(OC)c1OC the pIC50 [1] was 5.04 and the pIC50 [2] was 5.14.
CNC(=O)c1ccccc1Nc1ncnc(Nc2ccc(OC)cc2OC)n1 showed a pIC50 [1] of 5.82 and a pIC50 [2] of 5.19.
CS(=O)(=O)Nc1ccccc1Nc1ncnc(Nc2ccc(CN)cc2)n1 showed a pIC50 [1] of 5.64 and a pIC50 [2] of 5.41.
Compound COC(=O)Nc1ccccc1Nc1nc(C)nc(Nc2cc(OC)c(OC)c(OC)c2)n1 has a pIC50 [1] of 4.44 and a pIC50 [2] of 4.80.
Compound CC(C)NC(=O)c1ccccc1Nc1ncnc(Nc2ccc(CN)cc2)n1 has a pIC50 [1] of 6.00 and a pIC50 [2] of 5.49.
In the case of COc1cc(Nc2ncnc(Nc3ccccc3C(=O)NC3CCCC3)n2)cc(OC)c1OC, the pIC50 [1] was 5.28 and the pIC50 [2] was 5.41.
Compound COc1ccc(Nc2ncnc(Nc3ccccc3NC(C)=O)n2)c(OC)c1 has a pIC50 [1] of 4.68 and a pIC50 [2] of 4.95.
For COc1cc(Nc2nc(Cl)nc(Nc3ccccc3NS(C)(=O)=O)n2)cc(OC)c1OC, the pIC50 [1] was 4.38 and the pIC50 [2] was 5.02.
For COc1cc(Nc2ncnc(Nc3ccccc3C(=O)NCCO)n2)cc(OC)c1OC, the pIC50 [1] was 4.62 and the pIC50 [2] was 4.76.
In the case of CNC(=O)c1ccccc1Nc1ncnc(Nc2ccc(CN)cc2)n1, the pIC50 [1] was 6.80 and the pIC50 [2] was 5.68.
In the case of CNc1nc(Nc2cccc(NS(C)(=O)=O)c2)nc(Nc2cc(OC)c(OC)c(OC)c2)n1, the pIC50 [1] was 4.38 and the pIC50 [2] was 5.00.
With COc1cc(Nc2nc(C)nc(Nc3ccccc3NC(=O)N(C)C)n2)cc(OC)c1OC the pIC50 [1] was 4.27 and the pIC50 [2] was 4.56.
Compound CCNC(=O)c1ccccc1Nc1ncnc(Nc2ccc(CN)cc2)n1 has a pIC50 [1] of 6.36 and a pIC50 [2] of 5.55.
CNC(=O)c1ccccc1Nc1ncnc(Nc2cc(OC)c(OC)c(OC)c2)n1 gave a pIC50 [1] of 6.40 and a pIC50 [2] of 5.60.
With COc1cc(Nc2nc(Nc3ccccc3NC(C)=O)nc(C(F)(F)F)n2)cc(OC)c1OC the pIC50 [1] was 3.90 and the pIC50 [2] was 4.48.
COc1cc(Nc2ncnc(Nc3ccccc3C(=O)NC3CC3)n2)cc(OC)c1OC was tested, and the pIC50 [1] was 5.21 and the pIC50 [2] was 5.23.
Work on COc1cc(Nc2nc(Cl)nc(Nc3cccc(NS(C)(=O)=O)c3)n2)cc(OC)c1OC yielded a pIC50 [1] of 4.24 and a pIC50 [2] of 4.88.
With COC(=O)c1ccccc1Nc1ncnc(Nc2cc(OC)c(OC)c(OC)c2)n1 the pIC50 [1] was 4.75 and the pIC50 [2] was 4.63.
COc1cc(Nc2nc(C)nc(Nc3ccccc3NS(C)(=O)=O)n2)cc(OC)c1OC was tested, and the pIC50 [1] was 5.10 and the pIC50 [2] was 5.07.
COc1cc(Nc2nc(C)nc(Nc3ccccc3NC(C)=O)n2)cc(OC)c1OC showed a pIC50 [1] of 4.29 and a pIC50 [2] of 4.73.
CCC(CC)NC(=O)c1ccccc1Nc1ncnc(Nc2ccc(CN)cc2)n1 gave a pIC50 [1] of 5.72 and a pIC50 [2] of 5.85.
Compound CCC(CC)NC(=O)c1ccccc1Nc1ncnc(Nc2cc(OC)c(OC)c(OC)c2)n1 has a pIC50 [1] of 5.22 and a pIC50 [2] of 5.28.
COc1cc(Nc2ncnc(Nc3ccccc3C(=O)NC(C)C)n2)cc(OC)c1OC was tested, and the pIC50 [1] was 5.66 and the pIC50 [2] was 5.40.
COc1ccc(Nc2ncnc(Nc3ccccc3NS(C)(=O)=O)n2)c(OC)c1 was tested, and the pIC50 [1] was 5.21 and the pIC50 [2] was 5.57.
For CNC(=O)c1ccccc1Nc1ncnc(Nc2ccc(N3CCOCC3)cc2OC)n1, the pIC50 [2] was 5.82.
With COc1cc(Nc2ncnc(Nc3ccccc3NS(C)(=O)=O)n2)cc(OC)c1OC the pIC50 [1] was 5.29 and the pIC50 [2] was 5.21.

Reference: ChEMBL document CHEMBL2406973, “Synthesis of novel diarylamino-1,3,5-triazine derivatives as FAK inhibitors with anti-angiogenic activity” (Bioorg Med Chem Lett, 2013)
